Test results published in patent EP0370436A2, “Novel benzothiazole and benzimidazole derivatives and antiulcer agent containing the same” (MEIJI SEIKA KAISHA LTD., priority 1988, dated 1990).
Marks after values point to notes of the source that are not given here.

Legend:
Type in all cases: in vivo
[1] = system: male Donryu rats; assay: Aspirin-induced ulcer test; conditions: oral, 30 mg/5 ml/kg body weight, 1 h before Aspirin 300 mg/5 ml/kg oral, sacrificed after four hours
Experimental: A test compound suspended in 0.5% carboxymethylcellulose orally administered to male Donryu rats, which had been fasted for 24 hours, at a dose of 30 mg/5 ml/kg body weight. Similarly, 5 ml of 0.5% CMC was administered to a control group. One hour after the administration of the test compound, Aspirin suspended in 0.5% CMC was orally administered to the rats at a dose of 300 mg/5 ml/kg body weight. After four hours, each animal was sacrificed and the stomach was taken out and treated with an aqueous solution of formaldehyde to determine the ulceration inhibitory ratio in the same manner as in the submerged restrain stress ulcer test.

[2] = system: male Wister rats; assay: Submerged restraint stress ulcer test; conditions: Rattus norvegicus, oral, once, 30 mg/5 ml/kg body weight in 0.5% CMC, 1 h before 6 h water immersion restraint stress, read-out: Ulceration inhibitory ratio (%)
Experimental: A test compound as shown in Table 1 was suspended in 0.5% carboxymethylcellulose (CMC) and orally administered once to male Wister rats aged 11 weeks, which had been fasted for 18 hours, at a dose of 30 mg/5 ml/kg body weight. Similarly, 5 ml of 0.5% CMC was administered to a control group. One hour after the administration of the test compound, the rats were kept in restraining gages and immersed in water at 20 to 22°C up to the chest. Then, these animals were allowed to stand as such for six hours so as to load a stress. After pulling up from the water, each animal was sacrificed by vertebral cervical dislocation and the stomach was taken out. 5 ml of a 5% aqueous solution of formaldehyde was injected into the stomach and the stomach was immersed in said solution for 30 minutes for fixation. The specimen thus fixed was cut along the curvatura ventriculi major and the major axis of the formed ulcer was measured with a slide calipers (mm). The sum of the major axes of the total ulcers was made an ulcer index.
The ulceration inhibitory ratio was calculated according to the following equation: [formula]

[3] = system: male Donryu rats; assay: Ethanol-induced ulcer test; conditions: oral, 50 mg/5 ml/kg body weight, 1 h before 100% ethanol 5 ml/kg oral, sacrificed after one hour
Experimental: A compound obtained in Example 2 was suspended in 0.5% CMC and orally administered to male Donryu rats, which had been fasted for 48 hours and abstained from water for 24 hours, at a dose of […]. Similarly, 5 ml of 0.5% CMC was administered to a control group. One hour after the administration of the test compound, 100% ethanol was orally administered to the rats at a dose of 5 ml/kg body weight. After one hour, each animal was sacrificed and the stomach was taken out and treated in the above-mentioned manner. Then, erosion formation in the stomach was observed.
As a result, in a control group to which 0.5% CMC was given alone, erosion was formed at a frequency of almost 100%. In contrast thereto, in a test group to which the test compound was administered at a dose of 50 mg/5 ml/kg body weight, erosion formation was inhibited at a frequency of almost 100%. 5. Acute toxicity

[4] = system: male ICR mice; assay: Acute toxicity; conditions: oral, once, 1,000 mg/10 ml/kg body weight in 0.5% CMC; three male ICR mice; observed for seven days
From the text: A compound prepared in Example 2 was suspended in 0.5% CMC to give a predetermined concentration. Then, three male ICR mice aged 5 weeks were forced to orally take the above suspension once.

[5] = system: male Donryu rats; assay: Histamine-induced ulcer test; conditions: oral, once, 30 mg/5 ml/kg, 1 h before histamine dihydrochloride 200 mg/5 ml/kg i.p., sacrificed after five hours
Experimental: A compound obtained in Example 2 was suspended in 0.5% CMC and orally administered once to male Donryu rats, which had been fasted for 24 hours, at a dose of 30 mg/5 ml/kg. Similarly, 5 ml of 0.5% CMC was administered to a control group. One hour after the administration of the test compound, a solution of histamine dihydrochloride in a physiological saline solution was intraperitoneally administered to the rats at a dose of 200 mg/5 ml/kg. After five hours, each animal was sacrificed and the stomach was taken out and treated with an aqueous solution of formaldehyde to determine the ulceration inhibitory ratio in the same manner as in the above-described submerged restrain stress ulcer test. As a result, the ulceration inhibitory ratio was 50%.

SMILES	inhibition in vivo at 30 mg/kg [2]	further results
CCOCCSc1nc2cc(Cl)ccc2s1 [Example 1, 5-Chloro-2-[(2-ethoxyethyl)thio]benzothiazole]	57%	Ulceration inhibitory ratio (%) [1]: 21.3%
CCOCC[S+]([O-])c1nc2cc(Cl)ccc2s1 (stereo not shown) [Example 2, 5-Chloro-2-[(2-ethoxyethyl)sulfinyl]benzothiazole]	93%	Ulceration inhibitory ratio (%) [1]: 85* %; erosion formation was inhibited at a frequency of [3]: ~100%; acute toxicity (death of animals) [4]: no animal died; ulceration inhibitory ratio [5]: 50%
CCOCCS(=O)(=O)c1nc2cc(Cl)ccc2s1 [Example 3, 5-Chloro-2-[(2-ethoxyethyl)sulfonyl]benzothiazole]	35.3%	–
CCOCC[S+]([O-])c1nc2ccccc2s1 (stereo not shown) [Example 4, 2-[(2-Ethoxyethyl)sulfinyl]benzothiazole]	59.9%	–
[O-][S+](CCO)c1nc2cc(Cl)ccc2s1 (stereo not shown) [Example 9, 5-Chloro-2-[(2-hydroxyethyl)sulfinyl]benzothiazole]	58.5%	–
[O-][S+](CCOCCOCCO)c1nc2cc(Cl)ccc2s1 (stereo not shown) [Example 11, 5-Chloro-2-[{2-(2-hydroxyethoxy)ethoxy}ethylsulfinyl]benzothiazole]	63.5%	–
CCOCC[S+]([O-])c1nc2ccccc2[nH]1 (stereo not shown) [Example 17, 2-[(2-Ethoxyethyl)sulfinyl]benzimidazole]	73.6%	–
COc1ccc2[nH]c([S+]([O-])Cc3ncc(C)c(OC)c3C)nc2c1 (stereo not shown) [omeprazole, reference compound]	99%	–
